Laboratory results published in patent US5506256A, “Proline derivatives possessing prolyl endopeptidase-inhibitory activity” (Yoshitomi Pharmaceutical Industries, Ltd., priority 1990, dated 1996).

Key:
prolyl endopeptidase = biological target: T1, prolyl endopeptidase (Rattus norvegicus, UniProt O70196); assay: Prolyl endopeptidase-inhibitory activity; assay type: biochemical; conditions: for inhibition at 1 µM / inhibition at 0.1 µM: read-out: inhibition rate, prolyl endopeptidase; for IC50: prolyl endopeptidase extracted from rat brain, pH 7.0, 30° C., read-out: IC50
T1 construct: prolyl endopeptidase extracted from rat brain; from tissue; host or cells: rat brain
T1 sequence (O70196 whole entry): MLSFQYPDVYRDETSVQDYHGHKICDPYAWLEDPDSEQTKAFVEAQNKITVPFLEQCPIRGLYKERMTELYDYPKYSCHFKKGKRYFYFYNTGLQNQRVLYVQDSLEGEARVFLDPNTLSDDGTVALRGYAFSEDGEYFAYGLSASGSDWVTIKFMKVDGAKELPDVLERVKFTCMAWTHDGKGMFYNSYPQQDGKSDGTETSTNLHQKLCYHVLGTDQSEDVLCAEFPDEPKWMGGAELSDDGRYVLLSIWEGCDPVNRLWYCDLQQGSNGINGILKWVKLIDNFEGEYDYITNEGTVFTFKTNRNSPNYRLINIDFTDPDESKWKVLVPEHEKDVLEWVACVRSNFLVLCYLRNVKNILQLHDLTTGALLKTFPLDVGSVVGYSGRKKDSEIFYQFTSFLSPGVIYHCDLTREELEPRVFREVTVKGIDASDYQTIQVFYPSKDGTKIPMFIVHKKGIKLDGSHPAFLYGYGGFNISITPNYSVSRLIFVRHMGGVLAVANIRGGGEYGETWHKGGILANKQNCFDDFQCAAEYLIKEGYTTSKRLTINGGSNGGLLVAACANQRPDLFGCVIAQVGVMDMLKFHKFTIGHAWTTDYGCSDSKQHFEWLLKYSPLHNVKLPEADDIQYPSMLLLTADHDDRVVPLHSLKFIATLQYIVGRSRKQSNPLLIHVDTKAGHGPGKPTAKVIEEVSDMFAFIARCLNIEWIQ
How it was run: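 Rat brain prolyl endopeptidase was preincubated with compound for 30 min at 30 °C in 0.1 M potassium sodium phosphate, pH 7.0. Substrate Suc-Gly-Pro-MCA was then added from a 0.2 mM stock and the reaction run 1 h at 30 °C. After ice stop, fluorescence was read (ex 370/em 440 nm), and IC50 was estimated graphically from % inhibition.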

trypsin = biological target: T2, trypsin (Bos taurus, UniProt P00760); assay: Determination of trypsin-inhibitory activity; assay type: biochemical, bovine; conditions: read-out: inhibition rate, trypsin
T2 construct: purchased Sigma; host or cells: bovine pancreas
T2 sequence (P00760 24-246): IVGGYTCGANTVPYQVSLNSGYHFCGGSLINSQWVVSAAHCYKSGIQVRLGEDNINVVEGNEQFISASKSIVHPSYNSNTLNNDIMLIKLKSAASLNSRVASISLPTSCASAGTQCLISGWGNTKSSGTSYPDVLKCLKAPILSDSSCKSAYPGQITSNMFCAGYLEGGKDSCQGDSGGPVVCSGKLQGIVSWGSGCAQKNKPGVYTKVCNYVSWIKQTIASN
How it was run: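 Bovine pancreatic trypsin and compound in 50 mM Tris-HCl pH 8.0 with Pro-Phe-Arg-MCA substrate, 1 h at 30 °C, stopped on ice. Fluorescence at ex 370/em 440 nm. Inhibition rate from compound, no-enzyme and no-compound wells.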

chymotrypsin = biological target: T3, chymotrypsin (Bos taurus, UniProt P00766); assay: Determination of chymotrypsin-inhibitory activity; assay type: biochemical, bovine; conditions: read-out: inhibition rate, chymotrypsin
T3 construct: purchased Sigma; host or cells: bovine pancreas
How it was run: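 Bovine pancreatic chymotrypsin (0.2 μM enzyme solution) assayed in 50 mM Tris-HCl, pH 8.0, with the fluorogenic substrate Suc-Leu-Leu-Val-Tyr-MCA. Fluorescence was read with and without inhibitor, and percent inhibition was calculated from the fluorescence values.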

leucine aminopeptidase = assay: Determination of leucine aminopeptidase-inhibitory activity; assay type: biochemical, swine; design: unit not given here
How it was run: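 Swine kidney leucine aminopeptidase ([…] enzyme solution) was measured in 50 mM Tris-HCl pH 8.0 with 7-leucyl-4-methyl-coumarinamide (200 μM substrate solution). Inhibition rate was calculated from fluorescence readings.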

elastase = biological target: T4, elastase (Sus scrofa, UniProt P00772); assay: Determination of elastase-inhibitory activity; assay type: biochemical, swine; conditions: read-out: inhibition rate, elastase
T4 construct: purchased Sigma; host or cells: swine pancreas
T4 sequence (P00772 27-266): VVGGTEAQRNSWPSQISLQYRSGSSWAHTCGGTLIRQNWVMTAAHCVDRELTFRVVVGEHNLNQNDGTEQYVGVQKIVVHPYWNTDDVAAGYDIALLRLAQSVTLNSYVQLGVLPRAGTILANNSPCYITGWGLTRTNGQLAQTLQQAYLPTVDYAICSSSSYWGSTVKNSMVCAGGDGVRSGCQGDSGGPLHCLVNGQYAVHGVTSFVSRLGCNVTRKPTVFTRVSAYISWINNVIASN
How it was run: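 Porcine pancreatic elastase (0.2 μM solution) with 200 μM succinyl-Ala-Pro-Ala-4-methylcoumarinamide substrate solution in 1 mM Tris-HCl pH 8.5. Fluorescence measured and inhibition rate calculated by formula.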

cathepsin B = biological target: T5, cathepsin B (Bos taurus, UniProt P07688); assay: Determination of cathepsin B-inhibitory activity; assay type: biochemical, bovine; conditions: read-out: inhibition rate, cathepsin B
T5 construct: purchased Sigma; host or cells: bovine spleen
How it was run: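 Bovine spleen cathepsin B (0.02 μM solution) was assayed in 100 mM sodium phosphate, pH 6.0, with 1.33 mM EDTA. The substrate was Z-Phe-Arg-4-methylcoumarinamide (200 μM solution). Percent inhibition was calculated from fluorescence readings.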

Compound | inhibition at 1 µM (prolyl endopeptidase) [%] | IC50 (prolyl endopeptidase) [nM] | inhibition at 1 µM (trypsin) [%] | inhibition at 1 µM (chymotrypsin) [%] | inhibition rate, leucine aminopeptidase (leucine aminopeptidase; 1 μM) | inhibition at 1 µM (elastase) [%] | inhibition at 1 µM (cathepsin B) [%] | inhibition at 0.1 µM (prolyl endopeptidase) [%] | inhibition at 0.1 µM (trypsin) [%] | inhibition at 0.1 µM (chymotrypsin) [%] | inhibition rate, leucine aminopeptidase (leucine aminopeptidase; 0.1 μM) | inhibition at 0.1 µM (elastase) [%] | inhibition at 0.1 µM (cathepsin B) [%]
O=C(COc1ccccc1)[C@@H]1CCCN1C(=O)[C@@H]1CSCN1C(=O)NCc1ccccc1 [Compound 51, (2S)-1-[N-(Benzylaminocarbonyl)-L-thioprolyl]-2-(phenoxyacetyl)pyrrolidine] | 98 | 15 | 0 | 0 | 0 | 0 | 0 |  |  |  |  |  | 
O=C(C[S+]([O-])c1ccccc1)[C@@H]1CCCN1C(=O)[C@@H]1CCCN1C(=O)CCCc1ccccc1 (stereo partly drawn) [Compound 5, (2S)-1-[N-(4-Phenylbutyryl)-L-prolyl]-2-[(phenylsulfinyl)-acetyl]pyrrolidine] |  | 0.3 |  |  |  |  |  | 98 | 0 | 0 | 0 | 0 | 0
O=C(COc1ccc(F)cc1)[C@@H]1CCCN1C(=O)[C@@H]1CCCN1C(=O)NCc1ccc(F)cc1 [Compound 29, (2S)-1-[N-(4-Fluorobenzylaminocarbonyl)-L-prolyl]-2-(4-fluorophenoxyacetyl)pyrrolidine] |  | 0.1 |  |  |  |  |  | 99 | 0 | 0 | 0 | 0 | 0
COc1ccc([S@+]([O-])CC(=O)[C@@H]2CCCN2C(=O)[C@@H]2CCCN2C(=O)OCc2ccccc2)cc1 [Compound 12, (2S)-1-(N-Benzyloxycarbonyl-L-prolyl)-2-{[(R)-4-methoxy-phenylsulfinyl]acetyl}pyrrolidine] | 92 | 20 | 0 | 0 | 0 | 0 | 0 |  |  |  |  |  | 
COc1ccc(OCC(=O)[C@@H]2CCCN2C(=O)[C@@H]2CCCN2C(=O)COc2ccccc2)cc1 [Compound 47, (2S)-2-(4-Methoxyphenoxyacetyl)-1-[N-(phenoxyacetyl)-L-prolyl]pyrrolidine] | 98 | 50 | 0 | 0 | 0 | 0 | 0 |  |  |  |  |  | 
